Where two headings read alike, the source gives them in different places.
Tests used:
Type in all cases: cell-based
[1] = system: DMS273 lung cancer cells; test: antitumor activity, sulforhodamine B cell growth assay, DMS273
Procedure, shortened: (§1)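 Plate cells in RPMI 1640/5% FBS; attach overnight; read T0 absorbance at drug addition; treat 48 h; stain with SRB and read at 525 nm. Percent growth is calculated versus control and T0, and crossings at 50, 0 and −50% give log GI50, TGI, LC50.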

[2] = system: NCI-H23 lung cancer cells; test: antitumor activity, sulforhodamine B cell growth assay, NCI-H23
Description: (§2) The THIQ compound containing a macrocyclic structure of the present invention was administered to various cancer cell lines, and the antitumor activity (Go value) was observed. Specifically, verification was performed according to the literature (Yamori, T.; Matsunaga, A.; Sato, S.; Yamazaki, K.; Komi, A.; Ishizu, K. et al. Cancer Res. 1999, 59, 4042) by the following procedure.
(§3) Cells were plated at an appropriate density in a 96-well plate in RPMI 1640 together with 5% fetal bovine serum, and adhered overnight. The cells were exposed to a drug for 48 hours. Then, according to the sulforhodamine B assay described by Skehan et al (Skehan P., Storeng R., Scudiero D., Monks A., McMahon J., Vistica D., Warren J. T., Bokesch H., Kenney S., Boyd M. R. J Natl. Cancer Inst, 1990, 82, 1107-1112), the cell growth rate was measured. The absorbance of the control well (C) and the test well (T) was measured at 525 nm. In addition, the time at which the drug was added was set as time 0, and the absorbance for the test well (T0) was measured. Using these measured values, the cell growth inhibitory effect (% growth=PG) was calculated by the following formula at each concentration of the drug.
(§4) (T<T0): PG=100×[(T−T0)/T]
(§5) The PG values determined above for each cell line were plotted against the concentration (logarithm) on a semi-logarithmic graph, and summarized for each visceral cancer. Concentrations at which the dose-response curve of each cell line crossed the horizontal line of PG=50%, 0%, or −50% were calculated. These concentrations were defined as Log GI50, Log TGI, and Log LC50. Actually, using two data points of the drug concentration before and after crossing each horizontal line, the drug concentration (logarithmic value) at the intersection of the straight line connecting the two points and the horizontal line for each PG was calculated.

[3] = system: MDA-MB-231 breast cancer cells; test: antitumor activity, sulforhodamine B cell growth assay, MDA-MB-231
Procedure, shortened: as §1

[4] = system: DU-145 prostate cancer cells; test: antitumor activity, sulforhodamine B cell growth assay, DU-145
Procedure, shortened: as §1

[5] = system: A549 lung cancer cells; test: antitumor activity, sulforhodamine B cell growth assay, A549
Procedure, shortened: as §1

[6] = system: MKN-B gastric cancer cells; test: antitumor activity, sulforhodamine B cell growth assay, MKN-B
Procedure, shortened: as §1

[7] = system: OVCAR-5 cervical cancer cells; test: antitumor activity, sulforhodamine B cell growth assay, OVCAR-5
Description: as §2, §3, §4, §5

[8] = system: PC-3 prostate cancer cells; test: antitumor activity, sulforhodamine B cell growth assay, PC-3
Description: as §2, §3, §4, §5

[9] = system: SF-268 central nervous system cancer cells; test: antitumor activity, sulforhodamine B cell growth assay, SF-268
Description: as §2, §3, §4, §5

[10] = system: DMS114 lung cancer cells; test: antitumor activity, sulforhodamine B cell growth assay, DMS114
Procedure, shortened: as §1

[11] = system: OVCAR-8 cancer cells; test: antitumor activity, sulforhodamine B cell growth assay, OVCAR-8
Description: as §2, §3, §4, §5

[12] = system: SF-295 central nervous system cancer cells; test: antitumor activity, sulforhodamine B cell growth assay, SF-295
Procedure, shortened: as §1

[13] = system: HBC-4 breast cancer cells; test: antitumor activity, sulforhodamine B cell growth assay, HBC-4
Procedure, shortened: as §1

[14] = system: U251 central nervous system cancer cells; test: antitumor activity, sulforhodamine B cell growth assay, U251
Procedure, shortened: as §1

[15] = system: MKN74 gastric cancer cells; test: antitumor activity, sulforhodamine B cell growth assay, MKN74
Description: as §2, §3, §4, §5

[16] = system: NCI-H522 lung cancer cells; test: antitumor activity, sulforhodamine B cell growth assay, NCI-H522
Procedure, shortened: as §1

[17] = system: HCT-15 colorectal cancer cells; test: antitumor activity, sulforhodamine B cell growth assay, HCT-15
Procedure, shortened: as §1

[18] = system: MKN45 gastric cancer cells; test: antitumor activity, sulforhodamine B cell growth assay, MKN45
Procedure, shortened: as §1

[19] = system: OVCAR-3 cancer cells; test: antitumor activity, sulforhodamine B cell growth assay, OVCAR-3
Description: as §2, §3, §4, §5

[20] = system: KM-12 colorectal cancer cells; test: antitumor activity, sulforhodamine B cell growth assay, KM-12
Procedure, shortened: as §1

[21] = system: BSY-1 breast cancer cells; test: antitumor activity, sulforhodamine B cell growth assay, BSY-1
Procedure, shortened: as §1

[22] = system: OVCAR-4 cancer cells; test: antitumor activity, sulforhodamine B cell growth assay, OVCAR-4
Description: as §2, §3, §4, §5

[23] = Homo sapiens, DMS-273, DMS273 lung cancer cells, read-out: antitumor activity GI50 value: 50% growth inhibitory concentration
[24] = Homo sapiens, NCI-H23, NCl-H23 lung cancer cells, read-out: antitumor activity GI50 value: 50% growth inhibitory concentration
[25] = Homo sapiens, MDA-MB-231 breast cancer cells, read-out: antitumor activity GI50 value: 50% growth inhibitory concentration
[26] = Homo sapiens, DU-145 prostate cancer cells, read-out: antitumor activity GI50 value: 50% growth inhibitory concentration
[27] = Homo sapiens, A549 lung cancer cells, read-out: antitumor activity GI50 value: 50% growth inhibitory concentration
[28] = MKN-B gastric cancer cells, read-out: antitumor activity GI50 value: 50% growth inhibitory concentration
[29] = Homo sapiens, OVCAR-5 cervical cancer cells, read-out: antitumor activity GI50 value: 50% growth inhibitory concentration
[30] = PC-3 prostate cancer cells, read-out: antitumor activity GI50 value: 50% growth inhibitory concentration
[31] = Homo sapiens, SF-268 central nervous system cancer cells, read-out: antitumor activity GI50 value: 50% growth inhibitory concentration
[32] = Homo sapiens, DMS-114, DMS114 lung cancer cells, read-out: antitumor activity GI50 value: 50% growth inhibitory concentration
[33] = Homo sapiens, OVCAR-8 cervical cancer cells, read-out: antitumor activity GI50 value: 50% growth inhibitory concentration
[34] = Homo sapiens, SF-295 central nervous system cancer cells, read-out: antitumor activity GI50 value: 50% growth inhibitory concentration
[35] = HBC4, HBC-4 breast cancer cells, read-out: antitumor activity GI50 value: 50% growth inhibitory concentration
[36] = Homo sapiens, U-251, U251 central nervous system cancer cells, read-out: antitumor activity GI50 value: 50% growth inhibitory concentration
[37] = Homo sapiens, MKN-74, MKN74 gastric cancer cells, read-out: antitumor activity GI50 value: 50% growth inhibitory concentration
[38] = Homo sapiens, NCI-H522, NCl-H522 lung cancer cells, read-out: antitumor activity GI50 value: 50% growth inhibitory concentration
[39] = Homo sapiens, HCT-15 colorectal cancer cells, read-out: antitumor activity GI50 value: 50% growth inhibitory concentration
[40] = Homo sapiens, MKN-45, MKN45 gastric cancer cells, read-out: antitumor activity GI50 value: 50% growth inhibitory concentration
[41] = Homo sapiens, OVCAR-3 cervical cancer cells, read-out: antitumor activity GI50 value: 50% growth inhibitory concentration
[42] = Homo sapiens, KM12, KM-12 colorectal cancer cells, read-out: antitumor activity GI50 value: 50% growth inhibitory concentration
[43] = BSY-1 breast cancer cells, read-out: antitumor activity GI50 value: 50% growth inhibitory concentration
[44] = Homo sapiens, OVCAR-4 cervical cancer cells, read-out: antitumor activity GI50 value: 50% growth inhibitory concentration

C#CCN1C/C=C/COc2c(C)c3c(c4c2C[C@H]2[C@H]5c6c(cc(C)c(OC)c6O)C[C@@H]([C@H](C#N)N2C4CNC(=O)[C@@H]1C)N5C)OCO3 [Compound 44]
GI50 [1, 23]: < 10 nM | GI50 [2, 24]: < 10 nM | GI50 [3, 25]: < 10 nM | GI50 [4, 26]: < 10 nM | GI50 [5, 27]: < 10 nM | GI50 [6, 28]: < 10 nM | GI50 [7, 29]: < 10 nM | GI50 [8, 30]: < 10 nM | GI50 [9, 31]: < 10 nM | GI50 [10, 32]: < 10 nM | GI50 [11, 33]: < 10 nM | GI50 [12, 34]: < 10 nM | GI50 [13, 35]: < 10 nM | GI50 [14, 36]: < 10 nM | GI50 [15, 37]: < 10 nM | GI50 [16, 38]: < 10 nM | GI50 [17, 39]: < 10 nM | GI50 [18, 40]: < 10 nM | GI50 [19, 41]: < 10 nM | GI50 [20, 42]: < 10 nM | GI50 [21, 43]: < 10 nM | GI50 [22, 44]: < 10 nM

COc1c(C)cc2c(c1O)C1C3Cc4c5c(C)c6c(c4C(CNC(=O)C(C)NC(=O)OCC4C=C(CO5)CC5C(=O)N(c7ccccc7)C(=O)C45)N3C(C#N)C(C2)N1C)OCO6 (stereo not drawn) [Compound 18]
GI50 ([1]; DMS273, drug exposure 48 hours, read-out: GI50 value: 50% growth inhibitory concentration): 100 nM | GI50 ([2]; NCI-H23, drug exposure 48 hours, read-out: GI50 value: 50% growth inhibitory concentration): 110 nM | GI50 ([3]; MDA-MB-231, drug exposure 48 hours, read-out: GI50 value: 50% growth inhibitory concentration): 41 nM | GI50 ([4]; DU-145, drug exposure 48 hours, read-out: GI50 value: 50% growth inhibitory concentration): 330 nM | GI50 ([5]; A549, drug exposure 48 hours, read-out: GI50 value: 50% growth inhibitory concentration): 540 nM | GI50 ([6]; MKN-B, drug exposure 48 hours, read-out: GI50 value: 50% growth inhibitory concentration): 160 nM | GI50 ([7]; OVCAR-5, drug exposure 48 hours, read-out: GI50 value: 50% growth inhibitory concentration): 280 nM | GI50 ([8]; PC-3, drug exposure 48 hours, read-out: GI50 value: 50% growth inhibitory concentration): 170 nM | GI50 ([9]; SF-268, drug exposure 48 hours, read-out: GI50 value: 50% growth inhibitory concentration): 74 nM | GI50 ([10]; DMS114, drug exposure 48 hours, read-out: GI50 value: 50% growth inhibitory concentration): 12 nM | GI50 ([11]; OVCAR-8, drug exposure 48 hours, read-out: GI50 value: 50% growth inhibitory concentration): 130 nM | GI50 ([12]; SF-295, drug exposure 48 hours, read-out: GI50 value: 50% growth inhibitory concentration): 300 nM | GI50 ([13]; HBC-4, drug exposure 48 hours, read-out: GI50 value: 50% growth inhibitory concentration): 30 nM | GI50 ([14]; U251, drug exposure 48 hours, read-out: GI50 value: 50% growth inhibitory concentration): 50 nM | GI50 ([15]; MKN74, drug exposure 48 hours, read-out: GI50 value: 50% growth inhibitory concentration): 120 nM | GI50 ([16]; NCI-H522, drug exposure 48 hours, read-out: GI50 value: 50% growth inhibitory concentration): 20 nM | GI50 ([17]; HCT-15, drug exposure 48 hours, read-out: GI50 value: 50% growth inhibitory concentration): 630 nM | GI50 ([18]; MKN45, drug exposure 48 hours, read-out: GI50 value: 50% growth inhibitory concentration): 78 nM | GI50 ([19]; OVCAR-3, drug exposure 48 hours, read-out: GI50 value: 50% growth inhibitory concentration): 43 nM | GI50 ([20]; KM-12, drug exposure 48 hours, read-out: GI50 value: 50% growth inhibitory concentration): 100 nM | GI50 ([21]; BSY-1, drug exposure 48 hours, read-out: GI50 value: 50% growth inhibitory concentration): 19 nM | GI50 ([22]; OVCAR-4, drug exposure 48 hours, read-out: GI50 value: 50% growth inhibitory concentration): 350 nM

CC1=C(C)C(=O)C2=C(CC3(C)[C@H]4c5c(cc(C)c(C)c5C)C[C@@](C)(C(C)N3[C@H]2CNC(=O)C(C)C)N4C)C1=O (stereo partly drawn) [drawing 160]
GI50 [1, 23]: 270 nM | GI50 [2, 24]: 290 nM | GI50 [3, 25]: 130 nM | GI50 [4, 26]: 490 nM | GI50 [5, 27]: 1600 nM | GI50 [6, 28]: 170 nM | GI50 [7, 29]: 390 nM | GI50 [8, 30]: 290 nM | GI50 [9, 31]: 370 nM | GI50 [10, 32]: 35 nM | GI50 [11, 33]: 290 nM | GI50 [12, 34]: 500 nM | GI50 [13, 35]: 59 nM | GI50 [14, 36]: 370 nM | GI50 [15, 37]: 310 nM | GI50 [16, 38]: 43 nM | GI50 [17, 39]: 390 nM | GI50 [18, 40]: 300 nM | GI50 [19, 41]: 130 nM | GI50 [20, 42]: 530 nM | GI50 [21, 43]: 34 nM | GI50 [22, 44]: 290 nM

Source: US20240197726A1, “NOVEL TETRAHYDROISOQUINOLINE ALKALOID COMPOUND CONTAINING MACROCYCLE” (THE UNIVERSITY OF TOKYO, priority 2021, published 2024)
